Experimental data as given in patent US10934310B2, “Inhibitors of Bruton's tyrosine kinase and method of their use” (JANSSEN PHARMACEUTICA NV, priority 2015, dated 2021).

Biological target: unphosphorylated-BTK kinase domain (UP-BTK), GST-tagged human BTK (389-659aa) (Homo sapiens (Human), UniProt Q06187)
Experiment: BTK Kinase Lanthascreen Binding Assay
Details: for BTK_I_binding pIC50: pIC50 = negative log of the IC50 in molar; for IC50: read-out: BTK_I_binding pIC50 (converted)
Procedure: BTK Kinase Lanthascreen Binding Assay:
A BTK kinase lanthascreen binding assay monitors compound binding to unphosphorylated-BTK kinase domain (UP-BTK), by competing with a fluorescent labeled tracer. […] Data were analyzed using Xlfit™ version 5.3 from ID Business Solutions (Guildford), Microsoft Excel add-in. pIC50 refers to the negative log of the IC50 in molar.

[1] = Lanthascreen binding, 60 minutes incubation
[2] = compound, 50 nM Tracer 236, 2 nM anti-GST antibody, 60 minutes

unphosphorylated-BTK kinase domain (UP-BTK), GST-tagged human BTK (389-659aa), sequence (Q06187 389-659): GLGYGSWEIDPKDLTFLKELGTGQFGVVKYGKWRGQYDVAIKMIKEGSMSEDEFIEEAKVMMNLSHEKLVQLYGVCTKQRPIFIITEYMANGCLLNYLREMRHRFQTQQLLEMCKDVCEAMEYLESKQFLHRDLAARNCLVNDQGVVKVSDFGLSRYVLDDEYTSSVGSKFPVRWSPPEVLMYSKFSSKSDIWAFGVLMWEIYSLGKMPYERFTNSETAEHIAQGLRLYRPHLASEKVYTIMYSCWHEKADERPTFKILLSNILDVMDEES

Row | SMILES | BTK_I_binding pIC50 [1] | BTK_I_binding pIC50 [2] | further results
1 | C=CC(=O)N[C@@H]1CCC[C@H]1NC(=O)c1sc2nccc3c2c1NC(=O)N3c1cccc(-c2cccnc2)c1 [Example 324, N-((1R,2R)-2-Acrylamidocyclopentyl)-4-oxo-5-(3-(pyridin-3-yl)phenyl)-4,5-dihydro-3H-1-thia-3,5,8-triazaacenaphthylene-2-carboxamide] | 6.90 |  | 
2 | Cc1cc(Oc2ccccc2)ccc1N1C(=O)Nc2c(C(=O)N3CC[C@@H](NC(=O)/C(C#N)=C/C4CC4)C3)sc3nccc1c23 [Example 436, (R,E)-2-Cyano-3-cyclopropyl-N-(1-(5-(2-methyl-4-phenoxyphenyl)-4-oxo-4,5-dihydro-3H-1-thia-3,5,8-triazaacenaphthylene-2-carbonyl)pyrrolidin-3-yl)acrylamide] | 6.09 |  | 
3 | N[C@H]1CCC[C@H]1NC(=O)c1sc2nccc3c2c1NC(=O)N3c1cc(-c2ccccc2)cnn1 [Example 349, N-((1R,2S)-2-Aminocyclopentyl)-4-oxo-5-(5-phenylpyridazin-3-yl)-4,5-dihydro-3H-1-thia-3,5,8-triazaacenaphthylene-2-carboxamide] |  |  | IC50: > 1000 nM
4 | CCC(=O)NC1CCC[C@@H](NC(=O)c2sc3nccc4c3c2NC(=O)N4c2cnc(Oc3ccccc3)cc2C)C1 (single isomer, unassigned) [Example 423, 5-(*S)-(4-Methyl-6-phenoxypyridin-3-yl)-4-oxo-N-((1R,3R)-3-propionamidocyclohexyl)-4,5-dihydro-3H-1-thia-3,5,8-triazaacenaphthylene-2-carboxamide] | 7.75 |  | 
5 | C=CC(=O)N[C@H]1CCC[C@H]1NC(=O)c1sc2nccc3c2c1NC(=O)N3c1ccc(Oc2ccc(C)nc2)nc1C [Example 495, N-((1R,2S)-2-Acrylamidocyclopentyl)-5-(2-methyl-6-((6-methylpyridin-3-yl)oxy)pyridin-3-yl)-4-oxo-4,5-dihydro-3H-1-thia-3,5,8-triazaacenaphthylene-2-carboxamide] | 6.63 |  | 
6 | C=CC(=O)N[C@@H]1CCCC[C@H]1NC(=O)c1sc2nccc3c2c1NC(=O)N3c1cnc(Oc2ccccc2)nc1 [Example 338, N-((1R,2R)-2-Acrylamidocyclohexyl)-4-oxo-5-(2-phenoxypyrimidin-5-yl)-4,5-dihydro-3H-1-thia-3,5,8-triazaacenaphthylene-2-carboxamide] | 6.39 |  | 
7 | C=CC(=O)N[C@H]1CCC[C@H]1NC(=O)c1sc2nccc3c2c1NC(=O)N3c1ccc(Oc2cccnn2)cc1C (single isomer, unassigned) [Example 425, N-((1R,2S)-2-Acrylamidocyclopentyl)-5-(*R)-(2-methyl-4-(pyridazin-3-yloxy)phenyl)-4-oxo-4,5-dihydro-3H-1-thia-3,5,8-triazaacenaphthylene-2-carboxamide] | 6.67 |  | 
8 | CNCC(=O)N[C@H]1CCC[C@@H]1NC(=O)c1sc2nccc3c2c1NC(=O)N3c1ccc(Oc2ccccc2)cc1C (single isomer, unassigned) [Example 133, 5-(*S)-(2-Methyl-4-phenoxyphenyl)-N-((1S,2S)-2-(2-(methylamino)acetamido)cyclopentyl)-4-oxo-4,5-dihydro-3H-1-thia-3,5,8-triazaacenaphthylene-2-carboxamide] |  | 7.13 | 
9 | C=CC(=O)N[C@@H]1CCCC[C@H]1NC(=O)c1sc2nccc3c2c1NC(=O)N3c1ccc(OC(C)C)cc1C (single isomer, unassigned) [Example 264, N-((1R,2R)-2-Acrylamidocyclohexyl)-5-(*R)-(4-isopropoxy-2-methylphenyl)-4-oxo-4,5-dihydro-3H-1-thia-3,5,8-triazaacenaphthylene-2-carboxamide] |  | 6.26 | 
10 | C=CC(=O)N[C@H]1CCC[C@H]1NC(=O)c1sc2nccc3c2c1NC(=O)N3c1ccc(Oc2cccnc2)cc1C [Example 199, N-((1R,2S)-2-Acrylamidocyclopentyl)-5-(2-methyl-4-(pyridin-3-yloxy)phenyl)-4-oxo-4,5-dihydro-3H-1-thia-3,5,8-triazaacenaphthylene-2-carboxamide] |  | 8.13 | 
11 | Cc1cc(Oc2ccccc2)ccc1N1C(=O)Nc2c(C(=O)N[C@H]3CCC[C@H](N)C3)sc3nccc1c23 (single isomer, unassigned) [Example 247, N-((1S,3S)-3-Aminocyclohexyl)-5-(*S)-(2-methyl-4-phenoxyphenyl)-4-oxo-4,5-dihydro-3H-1-thia-3,5,8-triazaacenaphthylene-2-carboxamide] |  | 6.66 | 
12 | C=CC(=O)N[C@H]1CCC[C@H](NC(=O)c2sc3nccc4c3c2NC(=O)N4c2ccc(Oc3ccccc3)cn2)C1 (single isomer, unassigned) [Example 315, N-((1*S,3*S)-3-Acrylamidocyclohexyl)-4-oxo-5-(5-phenoxypyridin-2-yl)-4,5-dihydro-3H-1-thia-3,5,8-triazaacenaphthylene-2-carboxamide] | 7.50 |  | 
13 | C=CC(=O)N[C@@H]1CCCC[C@@H]1NC(=O)c1sc2nccc3c2c1NC(=O)N3c1ccc(Oc2ccccc2)cc1C (single isomer, unassigned) [Example 451] | 6.40 |  | 
14 | CCC(=O)N[C@H]1CC[C@@H](NC(=O)c2sc3nccc4c3c2NC(=O)N4c2ccc(Oc3ccccc3)cc2C)CC1 (single isomer, unassigned) [Example 93, 5-(*R)-(2-Methyl-4-phenoxyphenyl)-4-oxo-N-((1S,4S)-4-propionamidocyclohexyl)-4,5-dihydro-3H-1-thia-3,5,8-triazaacenaphthylene-2-carboxamide] |  | 6.99 | 
15 | C=CC(=O)N[C@@H]1CCC[C@@H]1NC(=O)c1sc2nccc3c2c1NC(=O)N3c1ccc(Oc2ccccc2)cc1C (single isomer, unassigned) [Example 114, N-((1S,2R)-2-Acrylamidocyclopentyl)-5-(*S)-(2-methyl-4-phenoxyphenyl)-4-oxo-4,5-dihydro-3H-1-thia-3,5,8-triazaacenaphthylene-2-carboxamide] |  | 6.81 | 
16 | C=CC(=O)N[C@H]1CCC[C@H]1NC(=O)c1sc2nccc3c2c1NC(=O)N3c1cnc(Oc2cccc(C)n2)cc1C [Example 483, N-((1R,2S)-2-Acrylamidocyclopentyl)-5-(4-methyl-6-((6-methylpyridin-2-yl)oxy)pyridin-3-yl)-4-oxo-4,5-dihydro-3H-1-thia-3,5,8-triazaacenaphthylene-2-carboxamide] | 7.49 |  | 
17 | C=CC(=O)N[C@H]1CCC[C@H]1NC(=O)c1sc2nccc3c2c1NC(=O)N3c1ccc(Oc2ccc(C)nc2)cc1 [Example 370, N-((1R,2S)-2-Acrylamidocyclopentyl)-5-(4-((6-methylpyridin-3-yl)oxy)phenyl)-4-oxo-4,5-dihydro-3H-1-thia-3,5,8-triazaacenaphthylene-2-carboxamide] | 7.79 |  | 
18 | C=CC(=O)N[C@@H]1CCC[C@@H](NC(=O)c2sc3nccc4c3c2NC(=O)N4c2ccc(Oc3ccccc3)cn2)C1 (racemic) [Example 216, N-((1RS,3RS)-3-Acrylamidocyclohexyl)-4-oxo-5-(5-phenoxypyridin-2-yl)-4,5-dihydro-3H-1-thia-3,5,8-triazaacenaphthylene-2-carboxamide] |  |  | IC50: 36.3 nM
19 | C=CC(=O)N[C@@H]1CCC[C@H]1NC(=O)c1sc2nccc3c2c1NC(=O)N3c1ccc(Oc2ccccc2)nc1 [Example 177, N-((1R,2R)-2-Acrylamidocyclopentyl)-4-oxo-5-(6-phenoxypyridin-3-yl)-4,5-dihydro-3H-1-thia-3,5,8-triazaacenaphthylene-2-carboxamide] |  | 7.49 | 
20 | C=CC(=O)N[C@H]1CCC[C@H]1NC(=O)c1sc2nccc3c2c1NC(=O)N3c1ccnc(-c2cccnc2)c1 [Example 317, 5-([2,3′-Bipyridin]-4-yl)-N-((1R,2S)-2-acrylamidocyclopentyl)-4-oxo-4,5-dihydro-3H-1-thia-3,5,8-triazaacenaphthylene-2-carboxamide] | 7.74 |  | 
21 | C=CC(=O)N[C@@H]1CCC[C@H]1NC(=O)c1sc2nccc3c2c1NC(=O)N3c1ccnc(-c2cccnc2)c1 [Example 326, 5-([2,3′-Bipyridin]-4-yl)-N-((1R,2R)-2-acrylamidocyclopentyl)-4-oxo-4,5-dihydro-3H-1-thia-3,5,8-triazaacenaphthylene-2-carboxamide] | 6.72 |  | 
22 | C=CC(=O)N[C@@H]1CCCC[C@H]1NC(=O)c1sc2nccc3c2c1NC(=O)N3c1ccnc(-c2ccccc2)c1 [Example 227, N-((1R,2R)-2-Acrylamidocyclohexyl)-4-oxo-5-(2-phenylpyridin-4-yl)-4,5-dihydro-3H-1-thia-3,5,8-triazaacenaphthylene-2-carboxamide] |  | 6.76 | 
23 | CCC(=O)N[C@H]1CCC[C@H]1NC(=O)c1sc2nccc3c2c1NC(=O)N3c1ccc(Oc2ccccc2)cc1 [Example 398, 4-Oxo-5-(4-phenoxyphenyl)-N-((1R,2S)-2-propionamidocyclopentyl)-4,5-dihydro-3H-1-thia-3,5,8-triazaacenaphthylene-2-carboxamide] | 6.56 |  | 
24 | C=CC(=O)N[C@H]1CCC[C@H]1NC(=O)c1sc2nccc3c2c1NC(=O)N3c1ccc(OC(C)C)cc1 [Example 205, N-((1R,2S)-2-Acrylamidocyclopentyl)-5-(4-isopropoxyphenyl)-4-oxo-4,5-dihydro-3H-1-thia-3,5,8-triazaacenaphthylene-2-carboxamide] |  | 7.62 | 
25 | Cc1cc(Oc2ccccc2)ccc1N1C(=O)Nc2c(C(=O)N[C@H]3CC[C@H](N)C3)sc3nccc1c23 (single isomer, unassigned) [Example 259, N-((1S,3S)-3-Aminocyclopentyl)-5-(*S)-(2-methyl-4-phenoxyphenyl)-4-oxo-4,5-dihydro-3H-1-thia-3,5,8-triazaacenaphthylene-2-carboxamide] |  | 6.45 | 
